Patent US6821508B2, “Composition and method for topical nail treatment” (Rutgers, the State University, priority 2001, dated 2004)
Values after ≈ are worked out from the molar mass of the structure shown. Like-named read-outs stand apart in the source and are kept apart here.

Columns and labels:
[1] = Enhancer screening: tritiated water permeation through nails in Franz-type diffusion cells (toenails); details: Table 2; pyrithione gels, each relative to its own control
Description: Frozen human toenails and fingernails were obtained from tissue banks based on a protocol for size, patient history, etc. The nails were thawed at room temperature for 1 hour, and the adhering skin and tissue was removed with a pair of scissors and a scalpel. The nails were cleaned by rinsing them in a mild detergent solution (1% solution of a standard liquid soap containing sodium and potassium dodecyl benzene sulfonate and ammonium laureth sulfate), followed by two rinses in deionized water (DI water). The thickness of the nails was measured with a micrometer, and the nails were immersed in 10 mL of DI water for 24 hours just prior to use to allow complete hydration and bring all the nails to the same condition for valid comparisons (Kobayashi, et al. (1998) Chem. Pharm. Bull. 46(11):1797-1802; Walters, et al. (1981) J Invest Dermatol 76:76-79; Mertin and Lippold (1997) J Pharm Pharmacol 49:30-34).
Franz-type diffusion cells (Crown Glass Co., Somerville, N.J.), specially designed to hold the human nail were used (Malhotra and Zatz (2000) J Cosmet Sci 51:367-377). The cleaned, trimmed nails were clamped into the diffusion cells. […]
All gels were prepared using the same general procedure. […] The apparent pH of the gels was measured. Prior to use, three 10 μL aliquots of the gel were analyzed by Liquid Scintillation Counting (LSC) to validate uniformity of spiking. […]

[2] = 25° C.; Hoogerheide and Wyka (1982); cited from earlier work
[3] = Solubility of clotrimazole in PEG-20-oleyl ether receptor fluid (HPLC); assay type: physicochemical; details: aqueous PEG-20-oleyl ether surfactant solution, 37 °C, aqueous with cosolvent or surfactant or cyclodextrin, thermodynamic from solid, read-out: Solubility of clotrimazole (Mean ± SEM, n = 3)
Description: Aqueous solutions of PEG-20-oleyl ether in concentrations of 0.5%, 1%, 2%, and 5% were prepared. Excess clotrimazole was added to vials containing 10 mL of surfactant solution. For each surfactant concentration, the solubility determination was done in triplicate. The vials were agitated in a mechanical shaker bath (Precision Scientific, Chicago, Ill.) maintained at 37° C. for 24 hours. The vials were then centrifuged (Fisher Scientific, Springfield, N.J.) at 4600 rpm for 30 minutes at 25° C. The supernatant was analyzed for drug concentration by High Performance Liquid Chromatography (HPLC).
The HPLC conditions were adapted from well known methods, for example Hoogerheide, et al. ((1981) J Assoc Off Anal Chem 64:864-869) and Rifai, et al. ((1995) Clin Chem 41:387-391). The HPLC analysis was performed using a Waters 600E System Controller Pump, Waters 717 Autoinjector, Waters 486 Tunable Absorbance Detector, and Waters 700 Data Module Integrator. A reverse-phase C-18 column (Waters Novapak, 3.9×150 mm, 4μ) was used. The mobile phase consisted of a mixture of 0.025M dibasic potassium phosphate (pH adjusted to approximately 6.3 with o-phosphoric acid) and HPLC grade methanol in the ratio 1:3. A flow rate of 1 mL/minute was maintained and the detector wavelength was set at 254 nm.
Standard solutions of clotrimazole in mobile phase were prepared in the concentration range of 5-200 μg/mL. The injection volume of standard and sample solutions was 20 μL.
The chromatography conditions yielded a linear standard curve (R^2=0.9995). From the standard curve, the solubility of clotrimazole in different concentrations of PEG-20-oleyl ether was quantitatively determined.

Compound | EFwater [1] | solubility in alcohol [2] | solubility in water [2] | solubility at 24 h ([3]; 0.5% PEG-20-oleyl ether in water) | solubility at 24 h ([3]; 1.0% PEG-20-oleyl ether in water) | solubility at 24 h ([3]; 2.0% PEG-20-oleyl ether in water) | solubility at 24 h ([3]; 5.0% PEG-20-oleyl ether in water)
[Na+].[O-][n+]1ccccc1[S-] [NaPTO, sodium pyrithione] | ~1 |  |  |  |  |  | 
Clc1ccccc1C(c1ccccc1)(c1ccccc1)n1ccnc1 [clotrimazole] |  | 95000 µg/mL (≈ 275000 µM) | < 10 µg/mL | 75.2 µg/mL (≈ 218 µM) | 191 µg/mL (≈ 553 µM) | 499 µg/mL (≈ 1450 µM) | 1350 µg/mL (≈ 3930 µM)
zinc pyrithione [ZnPTO] | 1.13 |  |  |  |  |  | 
